This passage reports Ki results from patent US8344008B2 (Janssen Pharmaceutica NV, priority 2007, dated 2013).

SMILES strings stand for the structures. Counter-ions that a name gives are not always drawn.

This test deals with T1, recombinant human LTA4 hydrolase (rhLTA4H) (Homo sapiens, UniProt P09960).
T1 construct: made in house; host or cells: Spodoptera frugiperda (Sf-9) cells, baculovirus (pFastBac1)
T1 sequence (P09960 1-611): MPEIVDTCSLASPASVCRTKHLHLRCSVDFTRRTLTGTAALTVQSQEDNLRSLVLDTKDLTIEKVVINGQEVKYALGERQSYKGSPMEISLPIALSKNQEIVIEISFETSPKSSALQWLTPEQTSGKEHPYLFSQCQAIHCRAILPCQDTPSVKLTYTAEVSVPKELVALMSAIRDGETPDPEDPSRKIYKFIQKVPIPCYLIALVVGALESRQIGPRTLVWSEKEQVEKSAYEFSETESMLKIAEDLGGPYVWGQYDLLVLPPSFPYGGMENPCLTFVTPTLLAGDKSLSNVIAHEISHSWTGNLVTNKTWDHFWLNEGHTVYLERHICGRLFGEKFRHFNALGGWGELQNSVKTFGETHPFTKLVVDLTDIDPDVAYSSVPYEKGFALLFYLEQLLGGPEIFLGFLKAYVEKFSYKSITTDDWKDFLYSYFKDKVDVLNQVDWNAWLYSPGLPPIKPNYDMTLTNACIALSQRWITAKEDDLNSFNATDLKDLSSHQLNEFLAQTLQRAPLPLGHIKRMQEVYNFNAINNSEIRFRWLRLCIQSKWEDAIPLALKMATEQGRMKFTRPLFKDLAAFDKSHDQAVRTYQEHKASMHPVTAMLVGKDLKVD
Briefly: Recombinant Human LTA4 Hydrolase Assay for LTA4 Hydrolase Inhibitor Activity. Type of test: biochemical. Particulars: average of results obtained; LTB4 quantified by enzyme-linked immunoassay. The gist of the method: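 LTB4 formation, quantified by EIA after 10 min at rt, was the read-out once 9 ng LTA4 (free acid) was added to recombinant human enzyme (36 ng, Sf-9 expressed) that had sat 10 min with compound. Buffer: 0.1 M potassium phosphate pH 7.4 with fatty-acid-free BSA; IC50 by 4-parameter fit.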
With `O=C(CO)N1C[C@@H]2C[C@H]1CN2Cc1ccc(Oc2nc3ccccc3s2)cc1F` [Example 78, (S,S)-1-{5-[4-(Benzothiazol-2-yloxy)-2-fluoro-benzyl]-2,5-diaza-bicyclo[2.2.1]hept-2-yl}-2-hydroxy-ethanone], the Ki came to 39 nM.
`O=S(=O)(c1cccnc1)N1CC2CN(Cc3ccc(Oc4nc5ccccc5s4)cc3)CC2C1` (stereo not drawn) [Example 120, 2-{4-[5-(Pyridine-3-sulfonyl)-hexahydro-pyrrolo[3,4-c]pyrrol-2-ylmethyl]-phenoxy}-benzothiazole]: the Ki was determined as 205 nM.
Take `O=S(=O)(c1ccsc1)N1CC2CN(Cc3ccc(Oc4nc5ccccc5s4)cc3)CC2C1` (stereo not drawn) [Example 125, 2-{4-[5-(Thiophene-3-sulfonyl)-hexahydro-pyrrolo[3,4-c]pyrrol-2-ylmethyl]-phenoxy}-benzothiazole]: the Ki worked out at 3620 nM.
As for `CS(=O)(=O)N1C[C@@H]2C[C@H]1CN2CCc1ccc(Oc2nc3ccc(Cl)cc3s2)cc1` [Example 238, (S,S)-6-Chloro-2-{4-[2-(5-methanesulfonyl-2,5-diaza-bicyclo[2.2.1]hept-2-yl)-ethyl]-phenoxy}-benzothiazole], the Ki was determined as 651 nM.
Turning to `O=C(CO)N1C[C@@H]2C[C@H]1CN2CCc1cccc(Oc2nc3ccccc3s2)c1` [Example 20, (S,S)-1-(5-{2-[3-(Benzothiazol-2-yloxy)-phenyl]-ethyl}-2,5-diaza-bicyclo[2.2.1]hept-2-yl)-2-hydroxy-ethanone], the Ki was determined as 73 nM.
In the case of `CC(=O)N[C@H]1C[C@H]2CC[C@@H](C1)N2CCOc1ccc(Cc2nc3ccccc3s2)cc1` [Example 152, N-{8-[2-(4-Benzothiazol-2-ylmethyl-phenoxy)-ethyl]-8-aza-bicyclo[3.2.1]oct-3-yl}-acetamide], the Ki came to 75 nM.
As for `O=C([C@H]1CCOC1)N1C[C@@H]2C[C@H]1CN2Cc1ccc(Oc2nc3ccccc3s2)cc1` [Example 13, (S,S,S)-{5-[4-(Benzothiazol-2-yloxy)-benzyl]-2,5-diaza-bicyclo[2.2.1]hept-2-yl}-(tetrahydro-furan-3-yl)-methanone], the Ki is 34 nM.
Then `CS(=O)(=O)N[C@@H]1C[C@H]2CC[C@@H](C1)N2CCOc1ccc(Oc2nc3cc(Cl)ccc3s2)cc1` [Example 265, meso-exo-N-(8-{2-[4-(5-Chloro-benzothiazol-2-yloxy)-phenoxy]-ethyl}-8-aza-bicyclo[3.2.1]oct-3-yl)-methanesulfonamide], with 310 nM; and `CC(=O)N1[C@@H]2CC[C@H]1C[C@H](NCCOc1ccc(Oc3nc4ccc(Cl)cc4s3)cc1)C2` [Example 268, meso-exo-1-(3-{2-[4-(6-Chloro-benzothiazol-2-yloxy)-phenoxy]-ethylamino}-8-aza-bicyclo[3.2.1]oct-8-yl)-ethanone], with 360 nM.
The result for `CC(C)(O)C(=O)N1C[C@H]2C[C@@H]1CN2Cc1ccc(Oc2nc3ccccc3s2)cc1` [Example 24, (R,R)-1-{5-[4-(Benzothiazol-2-yloxy)-benzyl]-2,5-diaza-bicyclo[2.2.1]hept-2-yl}-2-hydroxy-2-methyl-propan-1-one] reads 52 nM; that for `Cc1ccc2nc(Oc3ccc(CCN4CC5CN(C(N)=O)CC5C4)cc3)sc2c1` (stereo not drawn) [Example 146], 78 nM; that for `Cn1ccc(C(=O)N2CC3CN(Cc4ccc(Oc5nc6ccccc6s5)cc4)CC3C2)c1` (stereo not drawn) [Example 108, {5-[4-(Benzothiazol-2-yloxy)-benzyl]-hexahydro-pyrrolo[3,4-c]pyrrol-2-yl}-(1-methyl-1H-pyrrol-3-yl)-methanone], 97 nM.
As to `CS(=O)(=O)N1C[C@@H]2C[C@H]1CN2CCc1ccc(Oc2nc3cccc(F)c3s2)cc1` [Example 232, (S,S)-7-Fluoro-2-{4-[2-(5-methanesulfonyl-2,5-diaza-bicyclo[2.2.1]hept-2-yl)-ethyl]-phenoxy}-benzothiazole], the Ki came to 72 nM.
For `CS(=O)(=O)N[C@H]1C[C@H]2CC[C@@H](C1)N2Cc1ccc(Oc2nc3cc(F)ccc3s2)cc1` [Example 208, meso-endo-N-{8-[4-(5-Fluoro-benzothiazol-2-yloxy)-benzyl]-8-aza-bicyclo[3.2.1]oct-3-yl}-methanesulfonamide], the Ki was 22 nM.
As for `Cc1ccc2nc(Oc3ccc(CN4CC5CN(C(N)=O)CC5C4)cc3)sc2c1` (stereo not drawn) [Example 145, 5-[4-(6-Methyl-benzothiazol-2-yloxy)-benzyl]-hexahydro-pyrrolo[3,4-c]pyrrole-2-carboxylic acid amide], the Ki was determined as 597 nM.
Then `NC(=O)N1C[C@@H]2C[C@H]1CN2CCc1ccc(Oc2nc3ccccc3s2)cc1` [Example 38, (S,S)-5-{2-[4-(Benzothiazol-2-yloxy)-phenyl]-ethyl}-2,5-diaza-bicyclo[2.2.1]heptane-2-carboxylic acid amide], with 3 nM; and `CS(=O)(=O)N[C@H]1C[C@H]2CC[C@@H](C1)N2Cc1ccc(Oc2nc3ccccc3s2)cc1` [Example 58, meso-endo-N-{8-[4-(Benzothiazol-2-yloxy)-benzyl]-8-aza-bicyclo[3.2.1]oct-3-yl}-methanesulfonamide], with 0.2 nM.
`NCC(=O)N1C[C@H]2C[C@@H]1CN2Cc1ccc(Oc2nc3ccccc3s2)cc1` [Example 29, (R,R)-2-Amino-1-{5-[4-(benzothiazol-2-yloxy)-benzyl]-2,5-diaza-bicyclo[2.2.1]hept-2-yl}-ethanone]: the Ki was found to be 77 nM.
The result for `NCC(=O)N1CC2CCN(Cc3ccc(Oc4nc5ccccc5s4)cc3)C2C1` (stereo not drawn) [Example 96, 2-Amino-1-{1-[4-(benzothiazol-2-yloxy)-benzyl]-hexahydro-pyrrolo[3,4-b]pyrrol-5-yl}-ethanone] reads 26 nM.
In the case of `CS(=O)(=O)N1[C@@H]2CC[C@H]1C[C@@H](NCCOc1ccc(Oc3nc4cc(F)ccc4s3)cc1)C2` [Example 233, meso-endo-{2-[4-(5-Fluoro-benzothiazol-2-yloxy)-phenoxy]-ethyl}-(8-methanesulfonyl-8-aza-bicyclo[3.2.1]oct-3-yl)-amine], the Ki was found to be 225 nM.
Then `O=C(N1C[C@@H]2C[C@H]1CN2CCc1cccc(Oc2nc3ccccc3s2)c1)C1(O)CC1` [Example 18, (S,S)-(5-{2-[3-(Benzothiazol-2-yloxy)-phenyl]-ethyl}-2,5-diaza-bicyclo[2.2.1]hept-2-yl)-(1-hydroxy-cyclopropyl)-methanone], with 66 nM.
For the compound `O=C(N1C[C@H]2C[C@@H]1CN2Cc1ccc(Oc2nc3ccccc3s2)cc1)C1(O)CC1` [Example 26, (R,R)-{5-[4-(Benzothiazol-2-yloxy)-benzyl]-2,5-diaza-bicyclo[2.2.1]hept-2-yl}-(1-hydroxy-cyclopropyl)-methanone], the Ki was 37 nM.
Then `O=C(CO)N1CC2CN(Cc3ccc(Oc4nc5ccccc5s4)cc3)CC2C1` (stereo not drawn) [Example 118, 1-{5-[4-(Benzothiazol-2-yloxy)-benzyl]-hexahydro-pyrrolo[3,4-c]pyrrol-2-yl}-2-hydroxy-ethanone], with 23 nM; and `Cc1ccc2nc(Oc3ccc(OCCN[C@H]4C[C@H]5CC[C@@H](C4)N5S(C)(=O)=O)cc3)sc2c1` [Example 220, meso-endo-(8-Methanesulfonyl-8-aza-bicyclo[3.2.1]oct-3-yl)-{2-[4-(6-methyl-benzothiazol-2-yloxy)-phenoxy]-ethyl}-amine], with 445 nM; and `CC(=O)N[C@@H]1C[C@H]2CC[C@@H](C1)N2CCOc1ccc(Oc2nc3c(Cl)cccc3s2)cc1` [Example 240, meso-exo-N-(8-{2-[4-(4-Chloro-benzothiazol-2-yloxy)-phenoxy]-ethyl}-8-aza-bicyclo[3.2.1]oct-3-yl)-acetamide], with 510 nM.
Turning to `CC(=O)N1[C@@H]2CC[C@H]1C[C@@H](NCCc1ccc(Oc3nc4ccc(Cl)cc4s3)cc1)C2` [Example 224, meso-endo-1-(3-{2-[4-(6-Chloro-benzothiazol-2-yloxy)-phenyl]-ethylamino}-8-aza-bicyclo[3.2.1]oct-8-yl)-ethanone], the Ki came to 33 nM.
As for `CC(=O)N1C[C@H]2C[C@@H]1CN2CCOc1ccc(Oc2nc3ccc(C)cc3s2)cc1` [Example 180, (R,R)-1-(5-{2-[4-(6-Methyl-benzothiazol-2-yloxy)-phenoxy]-ethyl}-2,5-diaza-bicyclo[2.2.1]hept-2-yl)-ethanone], the inhibition constant (Ki) is 124 nM.
In the case of `c1ccc2sc(Oc3ccc(CN4CCC5CNCC5C4)cc3)nc2c1` (stereo not drawn) [Example 85, 2-[4-(Octahydro-pyrrolo[3,4-c]pyridin-5-ylmethyl)-phenoxy]-benzothiazole hydrochloride], the Ki is 450 nM.
For the compound `NC(=O)N[C@H]1C[C@H]2CC[C@@H](C1)N2CCc1ccc(Oc2nc3ccc(Cl)cc3s2)cc1` [Example 239, meso-endo-(8-{2-[4-(6-Chloro-benzothiazol-2-yloxy)-phenyl]-ethyl}-8-aza-bicyclo[3.2.1]oct-3-yl)-urea], the Ki was 130 nM.
Regarding `CC(=O)N1[C@@H]2CC[C@H]1C[C@@H](NCc1ccc(Oc3nc4ccc(F)cc4s3)cc1)C2` [Example 175, meso-endo-1-{3-[4-(6-Fluoro-benzothiazol-2-yloxy)-benzylamino]-8-aza-bicyclo[3.2.1]oct-8-yl}-ethanone], the Ki amounted to 53 nM.
